Marks after values point to notes of the source that are not given here.
Experiments:
A2058 = assay: Annexin V-FITC/PI staining, flow cytometry; format: cell-based, human; conditions: 48 h at EC50
Excerpt: (§1) To discern whether cell death triggered by OOPs treatment occurred via apoptosis or necrosis under the experimental conditions applied in this study, live cells treated with OOPs were stained simultaneously with FITC-conjugated annexin V and propidium iodide (PI). Annexin V binds to phosphatidylserine (PS) translocating from the inner to the outer leaflet of the plasma membrane in apoptotic cells. Therefore, annexin V-FITC binding to PS labels live apoptotic cells with green FL. […] PS exposure to the extracellular space and cell membrane permeability were analyzed by flow cytometry as described in detail in the Experimental Section. […] OOP concentrations used were equal to the EC50 values for each cell line (Table 1). annexin V and PI staining discriminated between early- (i.e., annexin V +ve and PI −ve) and late-apoptotic cells (i.e., annexin V +ve and PI +ve), as well as between necrotic (i.e., annexin V −ve and PI +ve) and live (i.e., annexin V −ve and PI −ve) cells (Table 4).
(§2) Apoptosis and necrosis were assessed by double staining with annexin V-FITC and propidium iodide (PI) and were analyzed using flow cytometry (FACS). Human cancer cells were plated in 96-well culture plates in 100 μL of complete medium and were allowed to adhere overnight (~16 h). […] In detail, 0.5 μL of a 500× stock of each tested compound in DMSO was added directly into each well in a final volume of 250 μL culture medium and was gently mixed by pipetting. Control wells were prepared under the same experimental conditions by adding only DMSO at a final concentration of 0.2% (v/v). At the end of the treatment, the cells were detached by trypsinization, media with serum was added to deactivate trypsin, and the cells from three wells were pooled together by centrifugation (1000 rpm, 5 min, 24 °C), washed with cold PBS, centrifuged (1000 rpm, 5 min, 24 °C) and finally resuspended in cold 1× annexin V binding buffer (10 mM HEPES pH = 7.4, 150 mM NaCl, 2.5 mM CaCl2) at a density of 10^4 cells/mL. Staining was performed by incubating with annexin V- FITC and propidium iodide (PI; BioLegend) for 15 min at room temperature in the dark, according to the manufacturer’s instructions. Negative control samples consisted of cells treated only with 0.2% (v/v) DMSO for the same incubation time length (i.e., 48 h). Cells treated with Triton X-100 (0.25% (v/v)) for 5 min at 4 °C were used as controls for 100% permeabilization of the plasma membrane and maximum fluorescence staining with PI (positive control for cells in necrosis). The presence of live, apoptotic or necrotic cells was assessed with the FACS Calibur (Becton–Dickinson, San Jose, CA, USA). In total, 10,000 cells were analyzed per measurement and the acquired data were analyzed using the FlowJo V.10.0.8 software (Tree Star Inc., Ashland, OR, USA). Each condition was analyzed in duplicate, and the results presented are from 2 or 3 independent experiments.
(§3) Data showing OOPs’ apoptotic/necrotic effect were derived from two or three independent experiments and were presented as the means ± SE of the percentage (%) of both annexin V-positive cells (early apoptotic events) and % of annexin V/PI positive cells (late apoptotic events) over the whole cell population normalized to the corresponding events of the control cells, as determined using the FlowJo software.

HT-29 = assay: Annexin V-FITC/PI staining, flow cytometry; format: cell-based, human; conditions: 48 h at EC50
Excerpt: as §1, §2, §3

MCF-7 = assay: Annexin V-FITC/PI staining, flow cytometry; format: cell-based, human; conditions: 48 h at EC50
Excerpt: as §1, §2, §3

SK-BR-3 cells = assay: Deactivation in culture medium (direct addition vs pre-incubation), ATP assay 48 h; format: cell-based, human; conditions: 20 and 40 μM, 15 min pre-incubation in culture medium vs direct addition
Experimental: The other OOPs tested were not affected similarly (Figure S3B). […] It was therefore decided for all the experiments presented in this manuscript and the assays performed to calculate the EC50 values to add all the OOPs tested directly to the culture medium.
Viable cell numbers were determined using the ATP-based luminescence assay after 48 h of treatment. The compound was added to the cells either directly or after incubation with the culture medium for 15 min. The results presented are from four independent experiments performed in triplicate. Bar graphs represent the mean cell count ± SE in each treatment group normalized to the control group (i.e., cells treated only with 0.2% (v/v) DMSO). * p < 0.05; ** p ≤ 0.01 (t-test) comparing the two different treatment methods.

Caco-2 cells = conditions: cited from earlier work
Hela cells = conditions: cited from earlier work
[1] = test system: MCF-7/TR (tamoxifen-resistant); parameters: method as in Mazzei et al. (2020) 27; conditions: ref Mazzei et al. (2020) 27; cited from earlier work

SMILES | % Cell Viability (A2058) | Early Apoptotic (% ± S.D.) (A2058) | Late Apoptotic (% ± S.D.) (A2058) | Total Apoptotic (%) (A2058) | % Cell Viability (HT-29) | Early Apoptotic (% ± S.D.) (HT-29) | Late Apoptotic (% ± S.D.) (HT-29) | % Cell Viability (MCF-7) | Early Apoptotic (% ± S.D.) (MCF-7) | Late Apoptotic (% ± S.D.) (MCF-7) | Total Apoptotic (%) (MCF-7) | stability/deactivation in the cell culture medium (SK-BR-3 cells) | EC50 (Caco-2 cells) | EC50 (Hela cells) | Total Apoptotic (%) (HT-29) | EC50 [1]
C/C=C(/C=O)[C@@H](CC=O)CC(=O)OCCc1ccc(O)cc1 [compound 1, oleocanthal] | 36% | 5.05 ± 2.7% | 2.35 ± 1.7% | 7.40 ± 4.4% | 66% | 5.53 ± 1.1% | 6.10 ± 4.3% | 65% | 6.30 ± 2.3% | 3.77 ± 0.8% | 10.07 ± 3.1% | partially deactivated | > 150 µM | > 150 µM |  | 
COC(=O)C1=COC(C)[C@@H](C=O)[C@@H]1CC(=O)OCCc1ccc(O)c(O)c1 (mixture of isomers) [3a,b, oleuropein aglycone] | 24% | 11.88 ± 2.3% | 7.26 ± 1.6% | 19.14 ± 0.7% | 41 ^a % | 6.95 ± 1.5% | 1.55 ± 1.5% | 69% | 7.03 ± 0.3% | 1.29 ± 0.8% | 8.31 ± 1.2% |  |  |  | 8.50 ± 1.8 ^a % | 70 µM

Source: article PMC9820430, “New Affordable Methods for Large-Scale Isolation of Major Olive Secoiridoids and Systematic Comparative Study of Their Antiproliferative/Cytotoxic Effect on Multiple Cancer Cell Lines of Different Cancer Origins” (International Journal of Molecular Sciences, 2022)
